Data on five compounds can be found in US20020169157A1, “Selective protein tyrosine phosphatatase inhibitors” (priority 2000, published 2002).

Bounds are passed on as bounds.

Assay [1] addresses T1, protein tyrosine phosphatase 1B (PTP1B, amino acid residues 1-321) (Homo sapiens, UniProt P18031).
T1 construct: PTP1B, amino acid residues 1-321; made in house; host or cells: E. coli BL21 (DE3)
T1 sequence (P18031 1-321): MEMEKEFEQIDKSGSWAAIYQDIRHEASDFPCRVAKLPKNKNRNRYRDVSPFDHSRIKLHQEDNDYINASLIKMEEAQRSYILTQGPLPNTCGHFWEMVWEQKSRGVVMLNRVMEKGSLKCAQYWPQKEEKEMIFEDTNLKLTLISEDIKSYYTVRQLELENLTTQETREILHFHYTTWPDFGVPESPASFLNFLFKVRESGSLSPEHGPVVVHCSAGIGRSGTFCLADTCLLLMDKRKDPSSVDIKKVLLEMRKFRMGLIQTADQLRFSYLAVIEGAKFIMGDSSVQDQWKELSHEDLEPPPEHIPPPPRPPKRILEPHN
Nature of the assay: Inhibition constant determination for protein tyrosine phosphatase 1B (pNPP hydrolysis). Format: biochemical. Particulars: competitive Ki, pNPP substrate, +/− S.D.; read-out: Phosphatase Inhibition Constants (Kic) PTP1B.
Protocol: Protein tyrosine phosphatase 1B activity was determined by measuring the rate of hydrolysis of a surrogate substrate, p-nitrophenyl phosphate (aka pNPP, C1907 Sigma, St. Louis, Mo.). The assay was carried out at room temperature in 96 well polypropylene or polyethylene plates in a total volume of 100 μL per well. Appropriate dilutions of the compounds were made in DMSO and then diluted ten fold with water. […] The reaction was initiated by adding 50 μL of diluted PTP1B diluted in 2× assay buffer containing 50 mM HEPES (pH=7.5), 300 mM NaCl and 0.2 mg/mL BSA. […] For each concentration of test compound (inhibitor) or DMSO control, the initial rates are used to fit the rectangular hyperbola of Michaelis-Menten by non-linear regression analysis (GraphPad Software Prism 3.0). The ratio of the apparent Km/Vmax vs. inhibitor concentration was plotted and the competitive Ki was calculated by linear regression to be the negative x-intercept. The uncompetitve Ki was similarly calculated from the x-intercept of the plot of the reciprocal of the apparent Vmax versus the inhibitor concentration.

The next assay deals with T2, TC-PTP (Homo sapiens, UniProt P17706).
T2 construct: chromatography of TCPTP (amino acid residues 1-283) was on Q-Sepharose-FF
T2 sequence (P17706 1-283): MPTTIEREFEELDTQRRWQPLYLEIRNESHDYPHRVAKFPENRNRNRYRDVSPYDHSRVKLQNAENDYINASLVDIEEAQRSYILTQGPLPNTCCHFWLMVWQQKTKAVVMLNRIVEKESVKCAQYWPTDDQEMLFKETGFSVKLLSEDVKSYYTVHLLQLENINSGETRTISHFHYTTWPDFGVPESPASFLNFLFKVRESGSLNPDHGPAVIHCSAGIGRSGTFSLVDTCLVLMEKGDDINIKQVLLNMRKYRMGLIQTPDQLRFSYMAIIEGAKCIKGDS
In words: Inhibition constant determination, selectivity panel: TCPTP (pNPP hydrolysis). Particulars: for Ki: competitive Ki, pNPP substrate, +/− S.D., read-out: Phosphatase Inhibition Constants (Kic) TC-PTP; for selective for PTP1B over TCPTP: from Kic values of Table 1. Format: biochemical.

In the next assay the target is T3, SHP-2 (full length) (Homo sapiens, UniProt Q06124).
T3 construct: SHP-2 (full length) was expressed in from E. coli; made in house; host or cells: E. coli
T3 sequence (Q06124 1-593): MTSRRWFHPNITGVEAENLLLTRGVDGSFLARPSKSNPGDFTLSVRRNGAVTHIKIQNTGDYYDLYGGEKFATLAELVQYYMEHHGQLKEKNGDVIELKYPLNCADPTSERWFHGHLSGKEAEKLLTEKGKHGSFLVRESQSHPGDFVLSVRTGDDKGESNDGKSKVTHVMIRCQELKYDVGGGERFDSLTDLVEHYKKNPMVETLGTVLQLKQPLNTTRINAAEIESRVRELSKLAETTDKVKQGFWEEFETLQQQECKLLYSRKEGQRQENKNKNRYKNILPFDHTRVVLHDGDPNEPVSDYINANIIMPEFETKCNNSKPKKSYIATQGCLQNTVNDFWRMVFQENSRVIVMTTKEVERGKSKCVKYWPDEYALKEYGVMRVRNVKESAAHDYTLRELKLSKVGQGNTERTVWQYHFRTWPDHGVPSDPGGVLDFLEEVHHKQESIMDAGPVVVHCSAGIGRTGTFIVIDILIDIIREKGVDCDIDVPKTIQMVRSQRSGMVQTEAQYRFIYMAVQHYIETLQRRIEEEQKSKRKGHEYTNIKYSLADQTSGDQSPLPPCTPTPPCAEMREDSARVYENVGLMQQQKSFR
In words: Inhibition constant determination, selectivity panel: SHP-2 (pNPP hydrolysis). It is filed as biochemical. The settings on record: competitive Ki, pNPP substrate; read-out: Phosphatase Inhibition Constants (Kic) SHP-2.

Another assay addresses T4, LAR (Homo sapiens, UniProt P10586).
T4 construct: purchased New England Biolabs P0750L
T4 sequence (P10586 1301-1639 limits assumed): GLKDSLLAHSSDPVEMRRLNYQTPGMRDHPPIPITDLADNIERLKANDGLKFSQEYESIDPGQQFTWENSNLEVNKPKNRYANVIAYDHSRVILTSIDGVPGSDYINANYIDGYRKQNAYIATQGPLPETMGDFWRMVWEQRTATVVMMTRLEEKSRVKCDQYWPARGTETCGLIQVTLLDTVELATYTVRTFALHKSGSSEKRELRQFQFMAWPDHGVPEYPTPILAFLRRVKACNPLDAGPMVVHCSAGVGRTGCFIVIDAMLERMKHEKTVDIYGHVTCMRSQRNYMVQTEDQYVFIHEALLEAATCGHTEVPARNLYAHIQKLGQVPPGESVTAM
Nature of the assay: Inhibition constant determination, selectivity panel: LAR (pNPP hydrolysis). Particulars: competitive Ki, pNPP substrate; read-out: Phosphatase Inhibition Constants (Kic) LAR. Format: biochemical.

A further assay has as its target T5, CD45 (Homo sapiens, UniProt P08575).
T5 construct: purchased Biomol Research Laboratories SE-135
T5 sequence (P08575 609-1306 limits assumed): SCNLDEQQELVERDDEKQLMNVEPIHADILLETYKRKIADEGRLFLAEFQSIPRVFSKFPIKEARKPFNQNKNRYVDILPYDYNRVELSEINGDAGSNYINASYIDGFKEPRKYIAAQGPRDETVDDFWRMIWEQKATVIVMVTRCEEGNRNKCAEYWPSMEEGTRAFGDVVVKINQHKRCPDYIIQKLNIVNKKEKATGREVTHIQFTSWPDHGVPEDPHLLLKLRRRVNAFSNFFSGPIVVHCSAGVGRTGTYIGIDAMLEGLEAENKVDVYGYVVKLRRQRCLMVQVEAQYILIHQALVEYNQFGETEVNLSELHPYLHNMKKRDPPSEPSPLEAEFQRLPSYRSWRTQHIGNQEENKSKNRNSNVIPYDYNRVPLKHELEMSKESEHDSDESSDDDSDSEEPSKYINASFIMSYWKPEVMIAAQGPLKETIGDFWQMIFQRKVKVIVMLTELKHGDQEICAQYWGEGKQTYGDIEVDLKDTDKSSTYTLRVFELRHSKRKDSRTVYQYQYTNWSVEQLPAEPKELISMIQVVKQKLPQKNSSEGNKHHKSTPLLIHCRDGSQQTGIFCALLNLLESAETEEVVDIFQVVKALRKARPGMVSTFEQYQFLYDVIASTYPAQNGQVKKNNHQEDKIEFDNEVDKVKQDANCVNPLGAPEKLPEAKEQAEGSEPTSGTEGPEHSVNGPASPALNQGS
Nature of the assay: Inhibition constant determination, selectivity panel: CD45 (pNPP hydrolysis). The settings on record: competitive Ki, pNPP substrate; read-out: Phosphatase Inhibition Constants (Kic) CD45. Format: biochemical.

For the next assay, the target named is T6, PP2B (Bos taurus, UniProt P48452).
T6 construct: purchased Sigma C1907
In words: Inhibition constant determination, selectivity panel: PP2B (pNPP hydrolysis). The settings on record: competitive Ki, pNPP substrate, TRIS-HCl pH 8.6 buffer; read-out: Phosphatase Inhibition Constants (Kic) PP2B. It is filed as biochemical, Bovine.

Assay [2] deals with T7, CDC25c (fusion with glutathione-S-transferase) (Homo sapiens, UniProt P30307).
T7 construct: GST (glutathione-S-transferase); made in house; host or cells: E. coli
T7 sequence (P30307 1-473): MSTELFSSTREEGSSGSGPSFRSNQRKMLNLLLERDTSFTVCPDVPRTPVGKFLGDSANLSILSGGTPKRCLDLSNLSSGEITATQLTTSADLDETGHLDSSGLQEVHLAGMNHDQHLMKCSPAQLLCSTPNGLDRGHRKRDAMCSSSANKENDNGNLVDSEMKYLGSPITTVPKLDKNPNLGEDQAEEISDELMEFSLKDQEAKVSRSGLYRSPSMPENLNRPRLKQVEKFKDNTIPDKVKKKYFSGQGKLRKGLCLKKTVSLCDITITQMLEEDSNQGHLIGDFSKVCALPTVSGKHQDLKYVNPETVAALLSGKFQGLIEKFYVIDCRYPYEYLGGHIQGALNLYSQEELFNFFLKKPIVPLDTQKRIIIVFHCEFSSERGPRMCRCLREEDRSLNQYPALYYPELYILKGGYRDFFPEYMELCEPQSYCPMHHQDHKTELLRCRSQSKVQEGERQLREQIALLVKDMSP
Nature of the assay: Inhibition constant determination, selectivity panel: Cdc25c (pNPP hydrolysis). It is filed as biochemical. Particulars: competitive Ki, pNPP substrate; read-out: Phosphatase Inhibition Constants (Kic) Cdc25c.
Protocol: (§1) Protein tyrosine phosphatase 1B activity was determined by measuring the rate of hydrolysis of a surrogate substrate, p-nitrophenyl phosphate (aka pNPP, C1907 Sigma, St. Louis, Mo.). The assay was carried out at room temperature in 96 well polypropylene or polyethylene plates in a total volume of 100 μL per well. Appropriate dilutions of the compounds were made in DMSO and then diluted ten fold with water. […] The reaction was initiated by adding 50 μL of diluted PTP1B diluted in 2× assay buffer containing 50 mM HEPES (pH=7.5), 300 mM NaCl and 0.2 mg/mL BSA. The phosphatase activity results in the formation of the colored product p-nitrophenol (pNP) which was continuously monitored at 405 nm every 30 seconds for 15 minutes using an appropriate plate reader. The absorbance at 405 nm was converted to nanomoles of pNP using a standard curve and the initial rate of pNP formation was calculated. […] The ratio of the apparent Km/Vmax vs. inhibitor concentration was plotted and the competitive Ki was calculated by linear regression to be the negative x-intercept. The uncompetitve Ki was similarly calculated from the x-intercept of the plot of the reciprocal of the apparent Vmax versus the inhibitor concentration.
(§2) The Kic and Kiu values are calculated as described for PTP1B. […]

T6 sequence (P63099 2-170 partner limits assumed, other chains not shown): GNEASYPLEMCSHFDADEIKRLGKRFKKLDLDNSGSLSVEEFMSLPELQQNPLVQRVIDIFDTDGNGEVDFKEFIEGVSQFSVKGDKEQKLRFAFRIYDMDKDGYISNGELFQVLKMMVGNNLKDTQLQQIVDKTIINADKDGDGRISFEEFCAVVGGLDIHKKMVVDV
Protocol for CD45: (§3) Protein tyrosine phosphatase 1B activity was determined by measuring the rate of hydrolysis of a surrogate substrate, p-nitrophenyl phosphate (aka pNPP, C1907 Sigma, St. Louis, Mo.). The assay was carried out at room temperature in 96 well polypropylene or polyethylene plates in a total volume of 100 μL per well. Appropriate dilutions of the compounds were made in DMSO and then diluted ten fold with water. […] The reaction was initiated by adding 50 μL of diluted PTP1B diluted in 2× assay buffer containing 50 mM HEPES (pH=7.5), 300 mM NaCl and 0.2 mg/mL BSA. The phosphatase activity results in the formation of the colored product p-nitrophenol (pNP) which was continuously monitored at 405 nm every 30 seconds for 15 minutes using an appropriate plate reader. The absorbance at 405 nm was converted to nanomoles of pNP using a standard curve and the initial rate of pNP formation was calculated. […] The ratio of the apparent Km/Vmax vs. inhibitor concentration was plotted and the competitive Ki was calculated by linear regression to be the negative x-intercept. The uncompetitve Ki was similarly calculated from the x-intercept of the plot of the reciprocal of the apparent Vmax versus the inhibitor concentration. […]
as §2
Protocol for LAR: as §3, §2
Protocol for PP2B: as §3, §2
Protocol for SHP-2 (full length): as §1, §2
Protocol for TC-PTP: Protein tyrosine phosphatase 1B activity was determined by measuring the rate of hydrolysis of a surrogate substrate, p-nitrophenyl phosphate (aka pNPP, C1907 Sigma, St. Louis, Mo.). The assay was carried out at room temperature in 96 well polypropylene or polyethylene plates in a total volume of 100 μL per well. Appropriate dilutions of the compounds were made in DMSO and then diluted ten fold with water. […] The reaction was initiated by adding 50 μL of diluted PTP1B diluted in 2× assay buffer containing 50 mM HEPES (pH=7.5), 300 mM NaCl and 0.2 mg/mL BSA. The phosphatase activity results in the formation of the colored product p-nitrophenol (pNP) which was continuously monitored at 405 nm every 30 seconds for 15 minutes using an appropriate plate reader. The absorbance at 405 nm was converted to nanomoles of pNP using a standard curve and the initial rate of pNP formation was calculated. For each concentration of test compound (inhibitor) or DMSO control, the initial rates are used to fit the rectangular hyperbola of Michaelis-Menten by non-linear regression analysis (GraphPad Software Prism 3.0). The ratio of the apparent Km/Vmax vs. inhibitor concentration was plotted and the competitive Ki was calculated by linear regression to be the negative x-intercept. The uncompetitve Ki was similarly calculated from the x-intercept of the plot of the reciprocal of the apparent Vmax versus the inhibitor concentration.
TCPTP used was either obtained commercially (catalog#752L New England Biolabs, 32 Tozer Rd, Beverly, Mass.) or as described for PTP1B. The purification of TCPTP differed from the purification of PTP1b in that chromatography of TCPTP (amino acid residues 1-283) was on Q-Sepharose-FF (Amersham Pharmacia Biotech) in 50 mM TRIS-HC1, pH 7.5, 2 mM DTT, 10% (v/v) glycerol, and was eluted with a 3 CV gradient of 0-300 mM NaCl in the same buffer. Fractions which contained TCPTP were selected and pooled based on SDS-PAGE. They were dialyzed versus 40 mM sodium phosphate, pH 7.5, 1 M ammonium sulfate, 10% (v/v) glycerol, 2 mM DTT, 1 mM sodium azide, applied to Phenyl Sepharose FF (Amersham Pharmacia Biotech), washed with 2.5 CV of the same buffer, and eluted with a 7 CV gradient of 1M to 0M NaCl in the same buffer. Fractions were assayed, pooled, frozen and stored as described for PTP1B.
The Kic and Kiu values are calculated as described for PTP1B. The assays were performed as described for PTP-1B except for the following changes. All the phosphatases except PP2B use the same 2× assay buffer as PTP1B. […] The concentrations of pNPP present in 40 ul were the same for TCPTP, CD45, LAR and PTP1B.

In the case of `CCC(CN(C(=O)C(=O)O)c1ccc(C[C@H](NC(=O)OC(C)(C)C)C(=O)NCCCCOc2cccc(O)c2C(=O)OC)cc1)C(=O)O` (stereo partly drawn) [Example 36, Methyl 2-(4-{[N-(tert-butoxycarbonyl)-4-[(2-carboxybutyl)(carboxycarbonyl)amino]phenylalanyl]amino}butoxy)-6-hydroxybenzoate], the Ki in assay [1] was found to be 1.3 µM. On TC-PTP, the Ki was found to be 7.9 µM and the “selective for PTP1B over TCPTP” value is reported as “at least 6 fold”.

Take `COC(=O)c1c(O)cccc1OCCCCNC(=O)CCc1ccc(NC(=O)C(=O)O)c(C(=O)O)c1` [Example 52, 2-[(carboxycarbonyl)amino]-5-[3-({4-[3-hydroxy-2-(methoxycarbonyl)phenoxy]butyl}amino)-3-oxopropyl]benzoic acid]: in assay [1], the Ki was 2.7 µM. For the same compound, on TC-PTP, the Ki amounted to 38.2 µM and the “selective for PTP1B over TCPTP” value is “at least 14 fold”.

`CCc1cc(C[C@H](NC(C)=O)C(=O)NCCCCOc2cccc(O)c2C(=O)OC)ccc1N(C(=O)C(=O)O)c1ccccc1C(=O)O` [Example 13, Methyl 2-{4-[(N-acetyl-4-[(carboxycarbonyl)(2-carboxyphenyl)amino]-3-ethylphenylalanyl)amino]butoxy}-6-hydroxybenzoate]: the Ki at TC-PTP was 0.57 µM; on SHP-2 (full length) it was 14.2 µM; at LAR it was 4.6 µM; on CD45 it was above 200 µM; on PP2B, above 200 µM; in assay [2], above 200 µM.

Take `COC(=O)c1c(O)cccc1OCCCCNC(=O)[C@H](Cc1ccc(NC(=O)C(=O)O)cc1)NC(=O)OC(C)(C)C` [Example 45, Methyl 2-(4-{[4-(carboxycarbonyl)amino-N-(tert-butoxycarbonyl)phenylalanyl]amino}butoxy)-6-hydroxybenzoate]: the Ki on TC-PTP amounted to 141 µM.

On to `CCc1cc(C[C@H](NC(C)=O)C(=O)NCCCCC(=O)N[C@@H](CCSC)C(=O)O)ccc1N(C(=O)C(=O)O)c1ccccc1C(=O)O` [Example 3, N-{5-[(N-acetyl-4-[(carboxycarbonyl)(2-carboxyphenyl)amino]-3-ethylphenylalanyl)amino]pentanoyl}-L-methionine], for which the Ki at SHP-2 (full length) is 17 µM; on LAR it was 5 µM; on CD45, above 200 µM; on PP2B it was above 200 µM; in assay [2], above 200 µM.
